How the values were obtained:
[1] = Rodent Feeding Model: Measurement of Food Intake in Food-Deprived Rats; type: in vivo, Male Long-Evans rats; details: 30 mg/kg i.p., N = 8; for Food Consumption (% chg.) 0-2 hrs / Food Consumption (% chg.) 0-6 hrs / Food Consumption (% chg.) 2-6 hrs: vs vehicle, negative = reduction
Description: Male Long-Evans rats (180-200 grams) are housed individually and are maintained on a once-a-day feeding schedule (i.e. 10 a.m. until 4 p.m.) for five days following quarantine to allow the animals to acclimate to feeding on powdered chow (#5002 PMI Certified Rodent Meal) during the allotted time. The chow is made available in an open jar, anchored in the cage by a wire, with a metal follower covering the food to minimize spillage. Water is available ad-libitum.
Animals are fasted for 18 hours prior to testing. At the end of the fasting period, animals are administered either compounds of the invention or vehicle. Vehicle and test compounds are administered either orally (5 mL/kg) 60 minutes prior to the experiment, or 30 minutes prior when given subcutaneously (1 mL/kg) or intraperitoneally (1 mL/kg). Compounds of the invention are administered orally as a suspension in aqueous 0.5% methylcellulose-0.4% Tween 80, or intraperitoneally as a solution or suspension in PEG 200; compound concentrations typically range from 1 mg/kg to 100 mg/kg, preferably from 10-30 mg/kg. Food intake is measured at 2, 4, and 6 hours after administration by weighing the special jar containing the food before the experiment and at the specified times. Upon completion of the experiment, all animals are given a one-week washout period before retesting.
Percent reduction of food consumption is calculated subtracting the grams of food consumed by the treated group from the grams of food consumed by the control group divided by the grams of food consumed by the control group, multiplied by 100. [formula] A negative value indicates a reduction in food consumption and a positive value indicates an increase in food consumption.

[2] = target: T1, human neuropeptide Y5 receptor (Homo sapiens, UniProt Q15761); assay: NPY5 HTS Centrifugation Assay: competition with 125I-PYY for binding to NPY5-transfected HEK293 cell membranes; details: 80 pM 125I-PYY, 1 hr room temperature, read-out: % Inh @ 3 uM (% Inhibition of ^125 I-PYY Binding)
T1 construct: expressed in transfected cells
T1 sequence (Q15761 1-445): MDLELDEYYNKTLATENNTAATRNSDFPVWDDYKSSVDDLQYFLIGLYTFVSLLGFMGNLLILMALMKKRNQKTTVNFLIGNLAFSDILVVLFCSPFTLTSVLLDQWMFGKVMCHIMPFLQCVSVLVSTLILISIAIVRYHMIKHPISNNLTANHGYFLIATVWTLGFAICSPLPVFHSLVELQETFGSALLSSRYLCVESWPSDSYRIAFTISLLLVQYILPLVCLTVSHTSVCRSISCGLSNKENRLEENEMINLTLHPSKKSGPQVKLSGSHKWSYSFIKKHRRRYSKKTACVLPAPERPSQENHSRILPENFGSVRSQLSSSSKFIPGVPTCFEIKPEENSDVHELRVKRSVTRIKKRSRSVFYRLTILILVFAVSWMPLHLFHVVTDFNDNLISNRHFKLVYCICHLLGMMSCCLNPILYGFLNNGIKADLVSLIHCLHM
Description: The compounds described in this invention were evaluated for binding to the human neuropeptide Y5 receptor.
The human NPY5 receptor cDNA (Genbank Accession number U66275) was inserted into the vector pClneo (Invitrogen) and transfected into human embryonic kidney cells (HEK-293) via Calcium phosphate method (Cullen 1987). Stably transfected cells were selected with G-418 (600 ug/mL). Stably transfected cells served as the source for the membranes for the NPY5 receptor binding assay.
NPY5-transfected HEK293 cells were grown to confluence in 150 cm^2 culture dishes. Cells were washed once with phosphate-buffered saline (Gibco Cat#14040-133). Cells were then incubated in phosphate-buffered saline without Calcium and without Magnesium, supplemented with 2 mM EDTA. Cells were incubated for 10 minutes at room temperature and the cells were collected by repetitive pipeting. Cells were formed into pellets and then frozen at -80 until needed. Frozen pellets were homogenized with a polytron at full speed for 12 seconds in a homogenization buffer (20 mM Tris HCl, 5 mM EDTA, pH 7.4). Homogenates were centrifuged for 5 minutes at 4C at 200 g. Supernatants were transferred to corex tubes and centrifuged for 25 minutes at 28,000 g. Pellets were re-suspended in Binding (20 mM HEPES, 10 mM NaCl, 0.22 mM KH2 PO4, 1.3 mM CaCl2, 0.8 mM MgSO4, pH 7.4). Membranes were kept on ice until use.
A competition binding assay, known to those skilled in the art, was used in which aminotetralins (I) compete with ^125 I-PYY for binding to cell membranes. In simple terms, the less ^125 I-PYY bound to the membranes implies that a compound is a good inhibitor (competitor). Bound ^125 I-PYY is determined by centrifugation of membranes, aspirating supernatant, washing away residual ^125 I-PYY and subsequently counting the bound sample in a g-counter.
Compounds to be tested were prepared as 10× stocks in binding buffer and added first to assay tubes (RIA vials, Sarstedt). Twenty (20) μL of each 10× compound stock is pipeted into vials and 80 μL of ^125 I-PYY (NEN catalog number NEX240), which has been diluted to a concentration of 200 pM in 0.25% BSA in binding buffer, is added to the compound tubes (final concentration of ^125 I-PYY is 80 pM). To each tube is added 100 μL of membranes and the mixture is agitated by pipeting 2 times. Samples are incubated for 1 hr at room temperature. Aluminum cast plates (Sarstedt) containing the vials are then centrifuged 10 minutes at 3200 rpm in a Sorvall RT6000. Supernatant is then aspirated. To each vial 400 μL PBS is added and this is then aspirated again. Vials are then put in carrier polypropylene 12×75 tube and counted in gamma counter (Packard). Non-specific binding is determined in the presence of 300 nM NPY. Percent inhibition of ^125 I-PYY binding is calculated by subtracting non-specific binding from the test samples (compound (I)), taking these counts and dividing by total binding, and multiplying by 100. Inhibitory concentration values (IC50) of compounds that show appreciable inhibition of ^125 I-PYY binding are calculated by obtaining percent inhibition of ^125 I-PYY binding values at different concentrations of the test compound, and using a graphing program such as GraphPad Prism (San Diego, Calif.) to calculate the concentration of test compound that inhibits fifty-percent of ^125 I-PYY binding (Table 4). These operations are known to those skilled in the art.

classic Y1 receptor = details: cited from earlier work
[3] = cited from earlier work
[4] = icv or into the amygdala; cited from earlier work
[5] = test system: forskolin-stimulated cAMP production/levels in a neuroblastoma cell line; details: cited from earlier work
[6] = animal models of learning; cited from earlier work

Molecule | Food Consumption (grams) 0-2 hrs [1] | Food Consumption (% chg.) 0-2 hrs [1] | Food Consumption (grams) 0-6 hrs [1] | Food Consumption (% chg.) 0-6 hrs [1] | Food Consumption (grams) 2-6 hrs [1] | Food Consumption (% chg.) 2-6 hrs [1] | inhibition at 3 µM [2] | binding at the classic Y1 receptor (classic Y1 receptor) | feeding ([3]; NPY fragment) | anxiolytic effects [4] | forskolin-stimulated cAMP production/levels [5] | memory and performance scores [6] | food intake ([3]; as little as one-billionth of a gram injected directly into the CNS, satiated rats)
O=S(=O)(NC[C@H]1CC[C@H](CNC2CCc3cc(F)ccc3C2Cc2cccnc2)CC1)c1ccccc1F (relative stereo) [Compound 111] | 5.13 g | -35.9% | 12.63 g | -31.7% | 7.50 g | -28.6% | – | – | – | – | – | – | –
O=S(=O)(NC[C@H]1CC[C@H](CN[C@H]2CCc3cc(O)ccc3[C@H]2Cc2cccnc2)CC1)c1ccccc1F (relative stereo) [Compound 44, rac-[1α,2α(trans)]-N-[[[[[1,2,3,4-tetrahydro-6-hydroxy-1-(3-pyridinylmethyl)-2-naphthalenyl]amino]methyl]-4-cyclohexyl]methyl]2-fluorobenzenesulfonamide] | 4.75 g | -40.6% | 14.00 g | -24.3% | 9.25 g | -11.9% | 101% | – | – | – | – | – | –
COc1ccc2c(c1)CCC(NC[C@H]1CC[C@H](CNS(=O)(=O)c3ccccc3F)CC1)C2Cc1cccnc1 (relative stereo) [Compound 43] | 6.63 g | -17.1% | 15.25 g | -17.6% | 8.63 g | -17.8% | – | – | – | – | – | – | –
COc1ccc2c(c1)CC[C@H](NC[C@H]1CC[C@H](CNS(=O)(=O)c3ccc(OC)c(OC)c3)CC1)[C@@H]2Cc1ccccc1 (relative stereo) [Compound 53] | 5.75 g | -33.3% | 11.88 g | -40.2% | 6.13 g | -45.6% | – | – | – | – | – | – | –
NPY2-36: NPY fragment | – | – | – | – | – | – | – | poor binding | potent inducer of feeding | – | – | – | –
Neuropeptide Y: single peptide protein that consists of thirty-six amino acids containing an amidated C-terminus | – | – | – | – | – | – | – | – | – | produces anxiolytic effects | inhibits forskolin-stimulated cAMP production/levels | improves memory and performance scores | causes satiated rats to overeat

— patent publication US6140354A, “N-substituted aminotetralins as ligands for the neuropeptide Y Y5 receptor useful in the treatment of obesity and other disorders” (Ortho-McNeil Pharmaceutical, Inc., priority 1999, dated 2000)
